Tests used:
[1] = tested on: hair cycle; format: in vivo; details: mice shaved at day 50 (Telogen); for pigmentation in response to treatment: topical every other day for 2-3 weeks
Procedure: (§1) FIG. 1A: Mice were shaved at day 50 (Telogen) and topically treated with Phenformin (5 uM) every other day for 2-3 weeks. […] FIG. 1B: Quantification of changes to the hair cycle in treatment and control. Quantification performed across 13 vehicle and 9 Phenformin treated male mice. FIG. 1C: Changes to the thickness of the epidermis, dermis and hypodermis were assessed microscopically and quantified. […] Scale bars for D indicate 25 micrometers.
(§2) FIG. 3A: Mice were shaved at day 50 (Telogen) and topically treated with antimycin A or Rotenone every other day for 2-3 weeks. […] FIG. 3B: Quantification of changes to the hair cycle in treatment and control. Quantification was performed with 13 vehicle treated, 11 Rotenone treated, and 9 Antimycin A treated male animals. FIG. 3C: Changes to the thickness of the epidermis, dermis and hypodermis were assessed microscopically and quantified. FIG. 3D: Immunolocalization was performed to detect evidence of inflammation due to topical application of ETC inhibitors. Both vehicle and ETC inhibitor treated skin was immunostained for phosphor-EGFR ([…]), CD11b (marker of macrophages), and IL6 (Chemokine). Vehicle treated skin from a wounded animal with hyperplastic epidermis was used as a positive control for markers of inflammation. Scale bars indicate 50 micrometers.
To determine whether manipulation of ETC activity could affect HFSC activation, various inhibitors of ETC components were topically applied to mice during a resting phase of the hair cycle. The topical formulation was prepared by suspending the active ingredient in PLO Ultramax Gel (lecithin organogel). At postnatal day 50, the hair follicle is in telogen, a resting phase where the stem cells of the follicle are quiescent until the start of the next hair cycle at day 70-80. Rotenone, Phenformin, and Antimycin A are established inhibitors of […], respectively. Animals were shaved at postnatal day 47 and treated with the indicated compounds or vehicle on the shaved area every 48 hours for the indicated duration. […]

[2] = tested on: hair follicles; format: in vivo; details: backskin of topically treated telogen mice
Procedure: as §1, §2
These findings were also in stark contrast to previous studies showing that transgenic abrogation of the ETC led to hair follicle degeneration.

[3] = tested on: hair follicle stem cells (HFSCs); format: in vivo, mice; details: topically treated skin, a week after treatment
[4] = tested on: lactate; format: in vivo, mice; details: topical treatment for 48 hours or 10 days
Procedure: FIG. 2A: Mice were treated topically with the indicated ETC inhibitor for 48 hours. Total epidermis was isolated, lysed and subjected to LDH activity assay. Relative LDH activity is presented as the rate of activity over 30 min in two different animals. FIG. 2B: Mice were treated topically with ETC inhibitor for 48 hours (TOP) or 10 days (BOTTOM). Total epidermis was isolated, and metabolites were extracted and subjected to metabolomics. Heatmap indicates relative levels of metabolites related to glycolysis and the TCA cycle.
To determine the effect on cellular metabolism of ETC inhibition by Rotenone, Phenformin and Antimycin A, two measures of metabolic pathways were performed. First, LDH activity was quantified on cells isolated from the epidermis treated with ETC inhibitors for 48 hours (FIG. 2A). Next, metabolomics was employed on sorted HFSCs with and without treatment for either 48 hours or 10 days.

[5] = tested on: hair cycle; format: in vivo; details: aged mice (at least 17 months), topical every other day for 30 days
Description: (§3) FIGS. 4A and 4B. Treatment with ETC inhibitors can accelerate the hair cycle in aged mice. FIG. 4A: Female mice were shaved at 17 months of age and then treated with vehicle or the indicated ETC inhibitor every other day for up to 30 days. Images taken over time indicate the ETC inhibition promotes a more complete re-growth of hair after shaving in aged mice. Quantification of phenotype emergence from two pairs of animals are presented on the right. Data shown are representative of three independent experiments with 10 mice each.
(§4) As mice age, the hair cycle is known to become protracted such that upon shaving, only portions of the backskin show regrowth of hair within a 1-2 months. Various batches of aged mice (at least 17 months) were treated for 30 days with ETC inhibitors to determine whether this metabolic manipulation could stimulate the hair cycle even in dormant follicles.

[6] = tested on: lactate; format: in vivo; details: aged mice, sorted HFSCs at the end of the hair cycle experiment
Description: as §3, §4

| Compound | pigmentation and hair growth in response to treatment ([1]; topical Phenformin 5 uM every other day for 2-3 weeks, at 10 and 16 days) | H and E staining / histological analysis of the hair cycle [2] | HFSC activation (Sox9 and Ki-67 immunohistochemistry) [3] | lactate levels and glycolytic intermediates (metabolomics) [4] | hair regrowth across the backskin after shaving [5] | lactate pool levels (metabolomics) [6] | pigmentation in response to treatment [1] |
| --- | --- | --- | --- | --- | --- | --- | --- |
| [H]/N=C(/N)N/C(=N/[H])NCCc1ccccc1 [Phenformin] | new pigmentation and then hair growth | advancement of the hair cycle | HFSCs became activated | increase in lactate levels as well as several other glycolytic intermediates | more complete hair regrowth across the entire backskin | increase in lactate pool levels |  |
| C=C(C)[C@H]1Cc2c(ccc3c2O[C@@H]2COc4cc(OC)c(OC)cc4[C@@H]2C3=O)O1 [Rotenone] |  | advancement of the hair cycle | HFSCs became activated | increase in lactate levels as well as several other glycolytic intermediates | more complete hair regrowth across the entire backskin | increase in lactate pool levels | new pigmentation |
| Antimycin A |  | advancement of the hair cycle | HFSCs became activated | increase in lactate levels as well as several other glycolytic intermediates | more complete hair regrowth across the entire backskin | increase in lactate pool levels | new pigmentation |

Source: patent US20200253917A1 (priority 2017, published 2020)
